From patent EP0551200A1, “Protein phosphatase inhibitors for use in therapy” (priority 1992, dated 1993) come the findings set out here.

Read-outs that look alike come from different tables or passages of the source.

The subject of series [1] is Egr-1 mRNA. As to the kind of experiment: cells. The series is classed as cell-based, mouse. As for the experimental part:
(§1) 10 µg of RNA was applied to each lane and subjected to Northern blot analysis using an Egr-1 specific cDNA probe [1.6 kb Bgl II fragment (Sukhatme et al, Cell 53, 37-48, 1988)]. The same blots were rehybridized with actin or GADPH cDNA for normalizing the amount of RNA loaded. The blots were dried and autoradiographed. • (A). Time course of okadaic acid-induced Egr-1 and c-jun messages in primary human fibroblasts. Quiescent human fibroblasts were induced with 1 µM of okadaic acid for the time periods indicated. […] Time course of okadaic acid-induced Egr-1 message in Balb/c 3T3 cells. Quiescent Balb/c 3T3 cells were induced with okadaic acid (0.5µM) for the times indicated. • (C). Concentration dependent induction of Egr-1 message by okadaic acid in Balb/c 3T3 cells. Quiescent Balb/c 3T3 cells were induced with the indicated concentrations of okadaic acid for 1 h. As controls, different concentrations of DMSO were included. These corresponded to the amounts present in 0.25 µM okadaic acid (0.025% dimethyl sulphoxide (DMSO)) 0.5 µM okadaic acid (0.05% DMSO) and 1 µM okadaic acid (0.1%). • (D). Concentration dependent and time course induction of Egr-1 message by calyculin A. Quiescent Balb/c 3T3 cells were induced with different concentrations of calyculin A for 1 h. Northern analysis of this dose-dependent induction by calyculin A is shown on the left panel of the figure. […] Northern analysis of this time course induction by calyculin A is shown in the right panel of the figure. The same blot was rehybridized with pCMV-fos (Curran et al, Oncogene 2, 79-84, 1987) and pCMV-jun (Rauscher et al, 1988) shown in the middle panel. The blot was dried and autoradiographed.
(§2) Quiescent primary human fibroblasts were incubated with okadaic acid (OA) or TPA for 1 or 3 h. The concentrations of OA and TPA were 0.5 µM and 120 ng/ml, respectively. The concentration of 1-(5-isoquinolinylsulfonyl)-2-methylpiperazine dihydrochloride (H7) and N-(2-guanidinoethyl)-5-isoquinolinesulphonamide dihydrochloride (HA1004) used was 25 µM. The cells were pre-treated for 15 min with H7 or HA1004 before they were induced by OA or TPA for 1 or 3 h. Cells were harvested, RNA was isolated and subjected to Northern blot analysis. The blot was probed with Egr-1 or GADPH cDNA. • (B). As a positive control, primary human fibroblasts were treated with TPA (30 ng/ml) for 1 h (1st lane). The fibroblasts were also pre-treated with H7 (25 µM) or HA1004 (25 µM) for 15 min before treatment with TPA for 1 h (2nd and 3rd lanes respectively). […] The blot was probed with Egr-1 or actin cDNA. • (C). Quiescent Balb/c 3T3 cells were incubated with OA, TPA or dBt-cAMP for 1 h or pre-treated with H7 (25 µM) or HA1004 (25 µM) for 15 min and then incubated with each of the agonists for 1 h. Cells were harvested, RNA was isolated and subjected to Northern blot analysis. The concentration of each agonist used was as follows: lane a: 0.5 µM of OA, lane b: 100 ng/ml of TPA, lane c: 1 mM of dBt-cAMP, lane d: H7 plus OA (0.5 µM), lane e: H7 plus TPA (100 ng/ml), lane f: H7 plus dBt-cAMP (1 mM), lane g: HA1004 plus OA (0.5 µM), lane h: HA1004 plus TPA (100 ng.ml), lane i: HA1004 plus dBt-cAMP (1mM). The blot was probed with Egr-1 or GADPH cDNA.
Cell Cultures and Reagents. Human diploid foreskin fibroblasts were a gift from Dr J Vilcek (New York University, New York). The cells were grown in MEM supplemented with 10% fetal bovine serum (Hyclone, Logan, UT, US), Mouse Balb/c 3T3 cells were purchased from the American Type Culture Collection and grown in Dulbecco's MEM (DMEM) supplemented with 10% fetal bovine serum. Okadaic acid, calyculin A, H7, and HA1004 were purchased from Biomol Research Laboratories (Plymouth Meeting, PA, US). TPA, puromycin and dBt-cAMP were purchased from Sigma (St Louis, MO, US) 1 mM stock solutions of okadaic acid or calyculin A were solubilized in DMSO. [³²P]orthophosphate and other radioactive chemicals were purchased from Du Pont-New England Nuclear (Boston, MA). […]

Series [2] deals with c-fos and c-jun. As to the kind of experiment: Northern blot analysis of c-fos and c-jun in Balb/c 3T3 cells. Particulars: 15 nM time course. The series is classed as cell-based, mouse. The procedure: 10 µg of RNA was applied to each lane and subjected to Northern blot analysis using an Egr-1 specific cDNA probe [1.6 kb Bgl II fragment (Sukhatme et al, Cell 53, 37-48, 1988)]. The same blots were rehybridized with actin or GADPH cDNA for normalizing the amount of RNA loaded. The blots were dried and autoradiographed. • (A). Time course of okadaic acid-induced Egr-1 and c-jun messages in primary human fibroblasts. Quiescent human fibroblasts were induced with 1 µM of okadaic acid for the time periods indicated. […] Time course of okadaic acid-induced Egr-1 message in Balb/c 3T3 cells. Quiescent Balb/c 3T3 cells were induced with okadaic acid (0.5µM) for the times indicated. • (C). Concentration dependent induction of Egr-1 message by okadaic acid in Balb/c 3T3 cells. Quiescent Balb/c 3T3 cells were induced with the indicated concentrations of okadaic acid for 1 h. As controls, different concentrations of DMSO were included. These corresponded to the amounts present in 0.25 µM okadaic acid (0.025% dimethyl sulphoxide (DMSO)) 0.5 µM okadaic acid (0.05% DMSO) and 1 µM okadaic acid (0.1%). • (D). […]
Cell Cultures and Reagents. […] The blots were autoradiographed and quantitated with the aid of the Visage 2000 Image System (BioImage Products, Ann Arbor, MI, US). […]

Series [3] has as its system Egr-1 protein. The series is classed as cell-based. Particulars: 2 h treatment, data not shown. The procedure: Quiescent human fibroblasts were stimulated with MEM containing 0.5 µM okadaic acid in the presence or absence of cycloheximide (10 µg/ml) for the times indicated in Fig. 11. […] Treatment of cells with cycloheximide enhanced the induction of Egr-1 mRNA by okadaic acid at 1.5 and 3 h (Fig. 11). Similarly puromycin, like cycloheximide, also "superinduces" the induction of the Egr-1 mRNA by okadaic acid (data not shown). […] However, in view that protein phosphatase 1 (PP1) and protein phosphatase 2A (PP2A) regulate enzymes associated with cellular protein synthesis (Cohen, Annu. Rev. Biochem. 58, 453-508, 1989) the effect of okadaic acid on protein synthesis in mouse and human fibroblasts was also measured. […] By then the Egr-1 mRNA message was already induced. A corollary to this is a comparison of the amount of ³⁵S-methionine labelled Egr-1 protein immunoprecipitated by R5232 antibodies from protein phosphatase inhibitor-treated and control cells. […] Thus, the induction of the Egr-1 gene by phosphatase inhibitors is unlikely to be mediated by their late inhibitory effects on cellular protein synthesis.

For series [4], the system named is human fibroblasts. As to the kind of experiment: Early protein phosphorylation changes in 32P-labeled cells, two-dimensional gel electrophoresis with computerized densitometry. The series is classed as cell-based.
Protocol: The cells were then subjected to analysis by high resolution two-dimensional gel electrophoresis combined with computerized imaging as previously described (Guy et al, J. Biol. Chem. 266, 14343-14352, 1991).
Radiolabeling of Cells and Cell Lysis - For labeling with [³²P]orthophosphate cells were plated onto 90 mm plastic tissue culture dishes and incubated for 3 days for the cells to become confluent. Immediately before labeling, the media was removed and the cells were washed twice with 5 ml of phosphate- and serum-free media (150 mM NaCl, 5 mM MgCl₂, 5 mM KCl, 1.6 mM CaCl₂, 0.5% glucose, 10 mM Tris, 0.1% bovine serum albumin, pH 7.4) before the addition of 1 mCi/ml of [³²P]orthophosphate in 3 ml of the same media to each plate. The plates were incubated at 37°C in a humidified CO₂ incubator for 2 h before the addition of the okadaic acid or other agonists at the concentrations and for the times indicated in the figures and table. The agonists were reconstituted in aqueous buffered solution or in dimethyl sulfoxide. […] At the completion of labeling the media was removed, and the cells were rapidly washed twice with 5 ml of ice-cold phosphate-buffered saline before being solubilised in 200 µl of cytosol extraction buffer (10mM Tris-HCl, 50 mM EDTA, 50 mM NaCl, 30 mM sodium pyrophosphate, 50 mM NaF, 100µM Na₃VO₄, 0.65% Nonidet P-40, 2 mM leupeptin, 2mM phenylmethylsulfonyl fluoride, pH 7.4). The lysate was collected and centrifuged for 5 min at 14,000 rpm. The pellet containing the nuclear fraction (including the cytoskeletal-membrane fractions) was separated from the cytosolic fraction. Both fractions were lyophilized.
Two-dimensional Gel Electrophoresis - The lyophilized fractions (each of approximately 12 µg) were subjected to isoelectric focusing for 18,000 V/h with pH 3-10 ampholytes using the Millipore Investigator two-dimensional electrophoresis system (Millipore). Following this, the first-dimension gel was extruded and equilibrated in SDS buffer for 2 min before being loaded onto the second dimension 12.5% SDS-polyacrylamide gel. The gel was fixed, dried and ³²P-labeled polypeptides were located by autoradiography by using intensifying screens at -80°C. For measurement of the pH profile, carbamylated protein standards (Pharmacia LKB Biotechnology Inc.) were co-run on duplicate gels and related to proteins of known pI on previously calibrated samples. Molecular weight marker proteins from Sigma were detected by Coomassie Blue staining and marked on the autoradiogram. ³²P-Labeled 27 hsp complex prepared from human fibroblasts heat shocked at 43°C for 30 min was also used as a marker.
Quantitative Determination of Protein Phosphorylation - The amount of protein phosphorylation on autoradiographs derived from cytosolic membrane or antibody-precipitated preparations containing equal amounts of protein were analyzed by computerized densitometry using a Visage 2000 Image analysis system (BioImage Products, Ann Arbor, MI, US).
The ³²P-labeled protein spots are resolved and detected by autoradiography of the high definition two-dimensional gel electrophoresis of cytosolic extracts prepared from ³²P-labeled human fibroblasts. The radioactive spots (each representing one or more phosphoproteins) are analyzed by computerized densitometry. Each spot is arbitrarily assigned a number. […]
Series [5] concerns Egr-1 mRNA. Kind of series: Northern blot analysis of Egr-1 mRNA induction in quiescent primary human fibroblasts. The series is classed as cell-based. As for the experimental part:
Quiescent human fibroblasts were incubated with TNF (500 units/ml) (a) or OA (500 nM) (b) for 0, 30, 60 min after which total cellular RNA was extracted. Blots of RNA from these cells were hybridized to radiolabeled (10⁶ cpm/ml) Egr-1 cDNA probe. c, the blot in b was stripped and reprobed with c-jun cDNA. Note: Egr-1 mRNA probe was not completely stripped from the blot. The autoradiograph of the blot is presented. d, regularly maintained cells were incubated wither with no additions (control, 0 time) or with OA for 1, 3, 5, 7 h and Northern analysis was carried out with an IL-6 cDNA probe (ATCC, Rockville, MD, US).
as §1
Cells were incubated with either 0.5 µM of okadaic acid or 10 µg/ml of cycloheximide as well as with 0.5 µM of okadaic acid and 10 µg/ml of cycloheximide for 1.5, 3 or 6 h. Cells were harvested, RNA isolated and subjected to Northern blot analysis. The blot was probed with Egr-1 or actin cDNA.
as §2, with “The concentration of each agonist used was as follows: lane a: 0.5 µM of OA, lane b: 100 ng/ml of TPA, lane c: 1 mM of dBt-cAMP, lane d: H7 plus OA (0.5 µM), lane e: H7 plus TPA (100 ng/ml), lane f: H7 plus dBt-cAMP (1 mM), lane g: HA1004 plus OA (0.5 µM), lane h: HA1004 plus TPA (100 ng.ml), lane i: HA1004 plus dBt-cAMP (1mM). The blot was probed with Egr-1 or GADPH cDNA.” left out

As for `COC[C@@H]([C@H](O)[C@H](O)C(=O)NCC[C@H](C)c1nc(/C=C/C[C@@H]2O[C@]3(C[C@@H](O)[C@@H]2C)O[C@H]([C@H](C[C@H](O)[C@H](C)[C@H](O)[C@H](C)/C=C(C)/C(C)=C/C=C/C(C)=C\C#N)OC)[C@H](OP(=O)(O)O)C3(C)C)co1)N(C)C` [calyculin A], the “concentration up to which induction of Egr-1 mRNA increased dose-dependently” value in series [1] (1 h) is “up to 25 nM”. Moreover, the “concentration inducing an equivalent fold increase in Egr-1 mRNA” value in series [1] (1 h, calyculin A compared with okadaic acid) was found to be 10 nM. Moreover, the “induction of immediate-early genes c-fos and c-jun (in words)” value in series [2] was “also induced”. In addition, the “amount of 35S-methionine labeled Egr-1 protein relative to control cells” value in series [3] was in the range of 4 to 5 fold.

With O-tetradecanoylphorbol 13-acetate [TPA], the “pattern of early protein phosphorylation changes (in words)” value in series [4] is on record as “quite different from that produced by okadaic acid or TNF”.

`COc1ccc(C[C@H](N)C(=O)N[C@H]2[C@@H](O)[C@H](n3cnc4c(N(C)C)ncnc43)O[C@@H]2CO)cc1` [puromycin]: in series [5] (0.5 µM okadaic acid, protein synthesis inhibitor), the “effect on the induction of Egr-1 mRNA by okadaic acid (in words)” value was “superinduces”.

As for `CC1CNCCN1S(=O)(=O)c1cccc2cnccc12.Cl.Cl` (stereo not shown) [H7, 1-(5-isoquinolinylsulfonyl)-2-methylpiperazine dihydrochloride], the “block of induction of Egr-1 message by okadaic acid or TPA (in words)” value in series [5] (25 µM, 15 min pre-treatment) was “effectively blocked”; in series [1] (25 µM, 15 min pre-treatment), “effectively blocked”.

For the compound `C[C@@H]1C[C@@H]([C@H](O)CC2CC(=O)NC(=O)C2)C(=O)[C@@H](C)C1` [cycloheximide], in series [5], the “effect on the induction of Egr-1 mRNA by okadaic acid (in words)” value is “enhanced” and the “induction of Egr-1 mRNA by the substance alone (in words)” value is given as “induced Egr-1 mRNA”.
